Data from paper PMC10964739 (Toxicological Sciences, 2024).

Key:
[1] = biological target: TOP2B (topoisomerase IIβ) (Homo sapiens, UniProt Q02880); test: kDNA decatenation assay with recombinant enzyme; type: biochemical
[2] = biological target: TOP2A (topoisomerase IIα) (Homo sapiens, UniProt P11388); test: kDNA decatenation assay with recombinant enzyme; type: biochemical
Chain of TOP2A (topoisomerase IIα) (P11388 whole entry): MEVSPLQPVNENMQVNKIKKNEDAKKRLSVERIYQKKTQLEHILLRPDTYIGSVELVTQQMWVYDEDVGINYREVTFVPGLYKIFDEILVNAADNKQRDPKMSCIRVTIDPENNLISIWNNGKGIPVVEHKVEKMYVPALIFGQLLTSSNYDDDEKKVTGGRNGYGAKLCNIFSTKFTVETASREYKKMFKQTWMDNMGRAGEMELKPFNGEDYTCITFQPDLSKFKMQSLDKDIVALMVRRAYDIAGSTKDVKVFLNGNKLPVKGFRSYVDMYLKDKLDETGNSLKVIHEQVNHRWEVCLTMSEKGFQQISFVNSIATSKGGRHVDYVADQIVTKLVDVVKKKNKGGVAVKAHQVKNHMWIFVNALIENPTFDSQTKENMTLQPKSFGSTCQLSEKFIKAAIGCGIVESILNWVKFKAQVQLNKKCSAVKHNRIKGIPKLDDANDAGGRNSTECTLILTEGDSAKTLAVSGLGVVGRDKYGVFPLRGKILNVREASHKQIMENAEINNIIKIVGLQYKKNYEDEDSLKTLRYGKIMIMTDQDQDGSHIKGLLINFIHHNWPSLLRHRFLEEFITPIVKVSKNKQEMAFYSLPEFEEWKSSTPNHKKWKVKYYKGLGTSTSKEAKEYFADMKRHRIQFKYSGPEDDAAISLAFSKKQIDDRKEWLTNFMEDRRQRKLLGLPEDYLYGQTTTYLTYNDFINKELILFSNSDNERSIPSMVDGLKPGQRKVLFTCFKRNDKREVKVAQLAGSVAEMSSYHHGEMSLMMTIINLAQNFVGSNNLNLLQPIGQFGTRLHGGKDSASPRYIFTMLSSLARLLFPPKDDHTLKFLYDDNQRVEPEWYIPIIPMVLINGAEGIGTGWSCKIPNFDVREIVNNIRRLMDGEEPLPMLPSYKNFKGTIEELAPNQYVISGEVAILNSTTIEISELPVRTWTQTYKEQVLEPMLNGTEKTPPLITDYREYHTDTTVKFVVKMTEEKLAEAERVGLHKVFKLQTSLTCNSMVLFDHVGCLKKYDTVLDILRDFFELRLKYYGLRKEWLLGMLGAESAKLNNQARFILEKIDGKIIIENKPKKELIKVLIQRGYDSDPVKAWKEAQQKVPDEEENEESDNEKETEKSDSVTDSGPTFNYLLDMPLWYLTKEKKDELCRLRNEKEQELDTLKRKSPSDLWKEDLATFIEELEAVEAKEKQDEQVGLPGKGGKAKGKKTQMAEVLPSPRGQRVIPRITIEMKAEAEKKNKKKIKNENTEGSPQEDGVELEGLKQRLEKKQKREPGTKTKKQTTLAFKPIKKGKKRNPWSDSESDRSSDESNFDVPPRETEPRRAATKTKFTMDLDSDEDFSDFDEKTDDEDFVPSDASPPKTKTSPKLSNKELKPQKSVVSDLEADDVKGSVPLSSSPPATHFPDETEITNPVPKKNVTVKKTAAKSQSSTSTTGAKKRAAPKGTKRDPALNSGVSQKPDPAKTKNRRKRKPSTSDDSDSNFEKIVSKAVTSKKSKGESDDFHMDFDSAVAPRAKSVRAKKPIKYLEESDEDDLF

Chain of TOP2B (topoisomerase IIβ) (Q02880 2-1626): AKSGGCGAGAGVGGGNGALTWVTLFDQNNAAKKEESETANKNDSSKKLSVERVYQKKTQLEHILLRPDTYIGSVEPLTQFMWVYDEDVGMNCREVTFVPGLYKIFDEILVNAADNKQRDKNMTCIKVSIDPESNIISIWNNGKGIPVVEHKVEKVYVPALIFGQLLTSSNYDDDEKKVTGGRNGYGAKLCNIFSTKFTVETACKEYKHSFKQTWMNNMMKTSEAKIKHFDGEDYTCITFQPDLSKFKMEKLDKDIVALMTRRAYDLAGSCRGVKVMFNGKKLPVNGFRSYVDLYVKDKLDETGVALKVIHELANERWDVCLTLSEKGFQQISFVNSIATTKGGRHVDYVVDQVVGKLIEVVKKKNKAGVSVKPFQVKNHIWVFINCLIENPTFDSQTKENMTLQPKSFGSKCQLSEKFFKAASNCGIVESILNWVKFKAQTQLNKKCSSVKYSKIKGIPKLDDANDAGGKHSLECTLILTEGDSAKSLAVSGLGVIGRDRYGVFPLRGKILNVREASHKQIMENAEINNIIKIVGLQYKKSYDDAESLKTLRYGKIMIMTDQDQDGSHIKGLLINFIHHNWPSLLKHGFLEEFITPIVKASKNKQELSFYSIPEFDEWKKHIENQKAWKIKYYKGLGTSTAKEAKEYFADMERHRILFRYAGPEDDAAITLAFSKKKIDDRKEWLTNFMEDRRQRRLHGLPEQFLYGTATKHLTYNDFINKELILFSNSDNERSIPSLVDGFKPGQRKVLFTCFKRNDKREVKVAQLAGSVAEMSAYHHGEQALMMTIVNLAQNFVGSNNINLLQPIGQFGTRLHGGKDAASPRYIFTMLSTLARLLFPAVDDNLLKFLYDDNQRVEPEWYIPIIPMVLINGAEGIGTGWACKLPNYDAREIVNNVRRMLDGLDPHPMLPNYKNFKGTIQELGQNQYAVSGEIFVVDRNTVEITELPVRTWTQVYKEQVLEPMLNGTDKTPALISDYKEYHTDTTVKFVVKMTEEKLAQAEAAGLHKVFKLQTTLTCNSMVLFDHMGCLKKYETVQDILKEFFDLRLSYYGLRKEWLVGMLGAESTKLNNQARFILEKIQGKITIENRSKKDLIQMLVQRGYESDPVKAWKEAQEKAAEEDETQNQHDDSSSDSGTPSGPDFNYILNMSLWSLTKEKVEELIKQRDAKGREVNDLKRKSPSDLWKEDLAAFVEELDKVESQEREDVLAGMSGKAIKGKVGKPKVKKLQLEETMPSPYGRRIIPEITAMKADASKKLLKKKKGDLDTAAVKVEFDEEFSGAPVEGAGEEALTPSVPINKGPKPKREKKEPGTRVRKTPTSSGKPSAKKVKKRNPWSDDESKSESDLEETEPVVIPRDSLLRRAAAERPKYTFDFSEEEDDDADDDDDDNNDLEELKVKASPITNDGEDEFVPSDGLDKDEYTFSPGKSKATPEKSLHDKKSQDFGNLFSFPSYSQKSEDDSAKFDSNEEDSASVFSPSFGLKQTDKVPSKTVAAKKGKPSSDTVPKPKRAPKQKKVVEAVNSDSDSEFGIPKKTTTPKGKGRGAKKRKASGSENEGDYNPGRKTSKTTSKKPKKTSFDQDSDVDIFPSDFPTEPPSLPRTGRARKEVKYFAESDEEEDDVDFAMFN

| IC50 [1] [µM] | IC50 [2] [µM] | SMILES |
| --- | --- | --- |
| ~130 | ~130 | CC(Oc1ccc(Oc2cnc3ccc(Cl)cc3n2)cc1)C(=O)O (racemic) [XK469, 2(R)-[4-(7-chloro-2-quinoxalinyl)oxyphenoxy]propionic acid] |
| ~60 | ~60 | C[C@@H](CN1CC(=O)NC(=O)C1)N1CC(=O)NC(=O)C1 [DEX, dexrazoxane] |
